These results are taken from patent publication US20070232594A1, “Aromatic amide derivatives, medicinal compositions containing the same, medical uses of both” (priority 2004, published 2007).

For assay [1], the target named is T1, human V2 receptor (Homo sapiens, UniProt P30518). The experiment in a line: Binding experiment for human V2 receptor ([3H]-AVP displacement, CHO cell membranes). Also on record: purchased Packard BioScience; host or cells: CHO cells (membranes). Particulars: [3H]-AVP binding, CHO cell membranes expressing human V2 receptor; Ki calculated from IC50 and Kd. The protocol: Binding Experiment for Human V2 Receptor
Test compounds were dissolved in dimethylsulfoxide at 10 mM. The affinities for human V2 receptor were determined by an inhibition against [^3H]-Arginie vasopressin (AVP) (Perkin elmer Japan) binding to the human V2 receptor using CHO cell membranes expressed human V2 receptor (Packard BioScience). Cell membranes suspension was prepared by suspending the cell membranes as mentioned above with Assay buffer (50 mM Tris-HCl, 10 mM MgCl2, 0.1% bovine serum albumin (BSA), pH7.4) at an adequate protein concentration. The test compound solutions were prepared by diluting the dimethylsulfoxide solution of the test compound as mentioned above with Assay buffer at final concentration of 10 nM, 100 nM, 1 μM and 10 μM (in this diluting procedure, concentration of dimethylsulfoxide was adjusted to be 0.5% at each concentration of the test compound). Cell membranes suspension (50 μL), 3 nM of [^3H]-AVP (50 μL), Assay buffer (50 μL) and the solution of the test compounds at each concentrations (50 μL) were added to MultiScreen 96-well plate (Millipore) and the mixture was incubated for an hour at 25° C. with shaking slightly. After filtration by aspiration, the plate was washed with ice-cold washing buffer (50 mM Tris-HCl, 10 mM MgCl2, pH 7.4) for three times. After dry the plate, Microscinti-20 (Packard) was added to each well and the plate was shaken slightly, and then radioactivities of each well were counted with a micro plate scintillation counter, TopCount (Packard). Non-specific binding of [^3H]-AVP for cell membranes was determined by adding 1 μM of cold AVP substituted for the test compounds. The concentration of the test compounds inhibiting the specific binding of [^3H]-AVP by 50% was considered as IC50 value.
The Calculation of Kd Value of [^3H]-AVP for the Cell Membranes Expressed Human V2 Receptor
The suspension of the cell membranes expressed human V2 receptor was prepared with diluting adequately with the Assay buffer as mentioned above. In consideration for the radioactivity of [^3H]-AVP, six different concentrations (final concentration; ranging from approximately 100 pM to 6000 pM) of [^3H]-AVP were prepared by serial dilution by from 2 to 3 fold with the Assay buffer. The cell membranes suspension (50 μL), each concentrations of [^3H]-AVP (50 μL), the Assay buffer (50 μL) and 1 μM of cold AVP or the Assay buffer were added to MultiScreen 96-well plate (Millipore) and the mixture was incubated for an hour at 25° C. with shaking slightly. The specific bindings (Bvalue) of each concentrations of the [^3H]-AVP were determined by the method as mentioned above and free-bound contents (F value) at each concentrations of the [^3H]-AVP were determined. The Kd value was calculated by Scatchard analysis using the B value and the F value.

Assay [2] deals with T1, human V2 receptor. The assay can be described thus: Study to confirm the agonism of human V2 receptor (intracellular Ca2+, HEK293 cells coexpressing human V2 receptor and Gqs chimeric protein). The assay is classed as cell-based. Also on record: expressed in transfected cells; host or cells: HEK293 cells (American Type Culture Collection), transient transfection with pCI-neo/hV2 and pLEC-Gqs5. Particulars: for EC50: intracellular Ca2+, HEK293 cells coexpressing human V2 receptor and Gqs; for IA (intrinsic activity): maximum response relative to AVP = 1. The protocol:
The Study to Confirm the Agonism of Human V2 Receptor
The experiment to confirm the response of the test compounds to human V2 receptor was carried out using the cells prepared as described below in order to use this confirmation study to see the agonism of human V2 receptor of the test compounds.
The test compounds were dissolved in dimethylsulfoxide at 10 mM and solutions of the test compounds were prepared by 10-fold serial dilution with the Assay buffer (0.1% BSA, 20 mM HEPES/Hank's balanced salt solution, pH 7.4) at the concentration of 0.1 nM to 10 μM, which were used in this study.
Human V2 receptor couples with Gs protein, one of the G-coupling protein, and consequently produces cyclic adenosine 3′, 5′-monophosphate (cAMP) via adenylate cyclase. This cAMP produce can be substituted to intracellular increase of Ca^2+ with coexpressing Gqs, a chimeric protein, and human V2 receptor (Mol. Pharmacol., Vol. 50, pp. 885-890, 1996). The responses of the test compounds for human V2 receptor were quantified by measuring this intracellular Ca^2+. The changes of intracellular Ca^2+ after adding the test compounds at each concentration as mentioned above (0.1 nM to 10 μM) were measured with a FlexStation (Molecular Devices) using a FLIPR CALCIUM ASSAY KIT (Molecular Devices).
The intrinsic activities (IA) of the test compounds were calculated from the maximum response of the test compounds as that of AVP was considered to be 1. In case of a full agonist, the EC50 values of the test compounds were calculated as the maximum response of AVP was considered to be 100% and in the case of a partial agonist, EC50 values of test compounds were calculated as the maximum response of own test compounds were considered to be 100%. The concentration that achieved to 50% response of the maximum response in a concentration-response curve was considered as EC50 value. The values of EC50 obtained in this study were shown in Table 68 described below as indications of the agonism of human V2 receptor.
The Preparation of the Cells Using Confirmation Study of an Agonism of Human V2, Receptor (HEK293 Cells Coexpressed Human V2 Receptor and Gqs Chimeric Protein)
HEK293 cells (American Type Culture Collection) were incubated in the Eagle's Minimum Essential Medium (EMEM, Invitrogen) containing 1 mM sodium pyruvate, nonessential amino acids (0.1 mM), streptomycin (100 μg/mL), penicillin (100 U/mL), 10% fetal calf serum (Sanko chemicals) in an incubator with 5% CO2 at 37° C. The transfection was carried out by adding pCI-neo hV2 expression vector, expression vector inserted with the sequence coding Gqs chimeric protein (pLEC-Gqs5, LiveWare, Molecular Devices) and Lipofectamine2000 (Invitrogen), all diluted with OPTI-MEM I Reduced Serum Medium I (Invitrogen), to the cell suspension which was prepared from the confluent cells suspended with EMEM as mentioned above without antibiotics at 1×10^6 cells/mL. After the transfection, the cells (HEK293 cells coexpressed human V2 receptor and Gqs chimeric protein) were incubated in an incubator with 5% CO2 for two days and were used as cells for confirming agonism of human V2 receptor, and used for assessment of the test compounds. The expression plasmid vector of human V2 receptor represented as pCI-neo/hV2 above was constructed by the method as described below.
The Method of Construction of Human V2 Receptor Expression Plasmid Vector
cDNA library was obtained from reverse transcription of human kidney total RNA using SuperScript II RNase H-reverse transcriptase (Invitrogen) and oligo dT. The DNA fragment encoding human V2 receptor was amplified by the PCR method using the cDNA library as a template, primers used in combination of each forward primer (sequence no. 1-3 shown below) and each reverse primer (sequence no. 4-6 shown below) respectively and pfu DNA polymerase (Stratagene). This amplified DNA fragment and pCR-blunt kit (Invitrogen), a cloning plasmid vector, were ligated by a general method of the kit. […]

T1 sequence (P30518 whole entry): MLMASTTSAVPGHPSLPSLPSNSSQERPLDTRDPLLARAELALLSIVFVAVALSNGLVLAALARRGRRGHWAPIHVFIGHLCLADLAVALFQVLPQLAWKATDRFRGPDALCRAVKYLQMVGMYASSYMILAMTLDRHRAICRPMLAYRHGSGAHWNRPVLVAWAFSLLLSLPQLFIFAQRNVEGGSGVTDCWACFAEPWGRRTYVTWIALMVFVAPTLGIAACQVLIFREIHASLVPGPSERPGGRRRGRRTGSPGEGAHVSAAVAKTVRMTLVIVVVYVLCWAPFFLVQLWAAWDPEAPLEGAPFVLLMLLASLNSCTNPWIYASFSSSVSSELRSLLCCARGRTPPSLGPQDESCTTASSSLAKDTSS

As for `Cc1cnc(CN2Cc3ccccc3N(C(=O)c3ccc(OCCO)cc3Cl)CC2=O)o1` [Example 2-21, 1-[2-chloro-4-(2-hydroxyethoxy)benzoyl]-4-(5-methyloxazole-2-ylmethyl)-1,2,4,5-tetrahydrobenzo[e]-1,4-diazepin-3-one], the Ki (usually the dissociation constant of the complex between target and ligand, obtained from inhibition or displacement) on human V2 receptor [1] was 322 nM. For the same compound, on human V2 receptor [2], the EC50 – broadly, the concentration at which the effect is half-maximal – is 6 nM and the “IA (intrinsic activity)” value amounted to 1.09.
With `O=C(O)CN1Cc2ccccc2N(C(=O)c2ccc(OCC(F)(F)F)cc2Cl)CC1=O` [Example 2-5, 1-[2-chloro-4-(2,2,2-trifluoroethoxy)-benzoyl]-3-oxo-1,2,3,5-tetrahydrobenzo[e]-1,4-diazepin-4-yl acetic acid], the inhibition constant (Ki) at human V2 receptor [1] was 197 nM. The EC50 at human V2 receptor [2] is 10 nM.
For `Cc1nnc(CN2Cc3ccccc3N(C(=O)c3ccc(OCCCO)nc3C)CC2=O)o1` [Example 31-8, 1-[6-(3-hydroxypropoxy)-2-methylpyridine-3-carbonyl]-4-(5-methyl-1,3,4-oxadiazol-2-ylmethyl)-1,2,4,5-tetrahydrobenzo[e]-1,4-diazepin-3-one], on human V2 receptor [2], the EC50 turned out to be 44 nM and the “IA (intrinsic activity)” value is given as 1.18.
As to `O=C(O)CN1Cc2ccccc2N(C(=O)c2ccc(-c3ccccc3)cc2)CC1=O` [Example 31-11, 1-(biphenyl-4-carbonyl)-3-oxo-1,2,3,5-tetrahydrobenzo[e]-1,4-diazepin-4-ylacetic acid], the Ki on human V2 receptor [1] was 103 nM. For the same compound, at human V2 receptor [2], the EC50 came to 39 nM and the “IA (intrinsic activity)” value was 0.35.
With `Cc1nnc(CN2Cc3ccccc3N(C(=O)c3ccc(-n4cccn4)nc3)CC2=O)o1` [Example 1-29, 4-(5-methyl-1,3,4-oxadiazol-2-yl-methyl)-1-[6-(pyrazol-1-yl)py-ridine-3-carbonyl]-1,2,4,5-tetra-hydrobenzo[e]-1,4-di-azepin-3-one], at human V2 receptor [2], the EC50 came to 50 nM and the “IA (intrinsic activity)” value was found to be 0.93.
Turning to `O=C1CN(C(=O)c2ccc(N3CCCC3)cc2Cl)c2ccccc2CN1Cc1nnn[nH]1` [Example 15, 1-(2-Chloro-4-pyrrolidin-1-ylbenzoyl)-4-(1H-tetrazol-5-ylmethyl)-1,2,4,5-tetrahydrobenzo[e]-1,4-diazepin-3-one], the Ki on human V2 receptor [1] is 97.7 nM. On human V2 receptor [2], the EC50 was 1 nM and the “IA (intrinsic activity)” value is given as 1.09.
